Patent US6737383B1, “Herbicidal oxadiazolidines” (priority 1999, dated 2004)

Experiments:
[1] = system: cocklebur; assay: Test B pre/postemergence cocklebur; format: in vivo, Xanthium strumarium
How it was run: (§1)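 Herbicidal effect was estimated by eye on a ten-point control scale after plants spent twelve to sixteen days in a greenhouse following soil or foliar treatment. Foliar sprays targeted plants at one to four leaves; all doses were formulated in a non-phytotoxic solvent with surfactant.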

[2] = system: corn; assay: Test B pre/postemergence corn; format: in vivo, Zea mays
How it was run: as §1

[3] = system: crabgrass; assay: Test B pre/postemergence crabgrass; format: in vivo, Digitaria sanguinalis
How it was run: as §1

[4] = system: giant foxtail; assay: Test B pre/postemergence giant foxtail; format: in vivo, Setaria faberii
How it was run: as §1

[5] = system: morningglory; assay: Test B pre/postemergence morningglory; format: in vivo, Ipomoea hederacea
How it was run: as §1

[6] = system: pigweed; assay: Test B pre/postemergence pigweed; format: in vivo, Amaranthus retroflexus
How it was run: as §1

[7] = system: rape; assay: Test B pre/postemergence rape; format: in vivo, Brassica napus
How it was run: as §1

[8] = system: soybean; assay: Test B pre/postemergence soybean; format: in vivo, Glycine max
How it was run: as §1

[9] = system: sugar beet; assay: Test B pre/postemergence sugar beet; format: in vivo, Beta vulgaris
How it was run: as §1

[10] = system: velvetleaf; assay: Test B pre/postemergence velvetleaf; format: in vivo, Abutilon theophrasti
How it was run: as §1

[11] = system: wheat; assay: Test B pre/postemergence wheat; format: in vivo, Triticum aestivum
How it was run: as §1

[12] = system: wild oat; assay: Test B pre/postemergence wild oat; format: in vivo, Avena fatua
How it was run: as §1

[13] = system: purple nutsedge; assay: Test B pre/postemergence purple nutsedge; format: in vivo, Cyperus rotundus
How it was run: as §1

[14] = system: rice; assay: Test B flood test rice; format: in vivo, Oryza sativa; details: for Rice plant response rating: scale of 0 to 10 where 0 is no effect and 10 is complete control
How it was run: (§2)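 Read-out is a visual response score from 0 (no effect) to 10 (complete control), assigned by comparison with untreated controls. Treatment was applied at the 2-leaf stage, and plants stayed in the greenhouse for twelve to sixteen days before scoring.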

[15] = system: smallflower flatsedge; assay: Test B flood test smallflower flatsedge; format: in vivo, Cyperus difformis; details: for S. Flatsedge plant response rating: scale of 0 to 10 where 0 is no effect and 10 is complete control
How it was run: as §2

[16] = system: duck salad; assay: Test B flood test duck salad; format: in vivo, Heteranthera limosa; details: for Plant response rating, Ducksalad: scale 0 to 10, 0 is no effect, 10 is complete control; for Ducksalad plant response rating: scale of 0 to 10 where 0 is no effect and 10 is complete control
How it was run: as §2

[17] = Postemergence, Rate 125 g/ha, scale 0 to 10, 0 is no effect, 10 is complete control
[18] = Postemergence, Rate 250 g/ha, scale 0 to 10, 0 is no effect, 10 is complete control
[19] = Postemergence, Rate 500 g/ha, scale of 0 to 10 where 0 is no effect and 10 is complete control
[20] = Preemergence, Rate 62 g/ha, scale 0 to 10 (0 no effect, 10 complete control)
[21] = Preemergence, Rate 125 g/ha, scale of 0 to 10 where 0 is no effect and 10 is complete control
[22] = Preemergence, Rate 250 g/ha, scale 0 to 10, 0 is no effect, 10 is complete control
[23] = Preemergence, Rate 500 g/ha, scale 0 to 10, 0 is no effect, 10 is complete control
[24] = Rate 62 g/ha, Postemergence, scale of 0 to 10 where 0 is no effect and 10 is complete control
[25] = Postemergence section (flood test species), Rate 500 g/ha
[26] = Rate 62 g/ha, Postemergence (flood test species)
[27] = flood test species, listed under Postemergence, Rate 250 g/ha, scale 0 to 10, 0 is no effect, 10 is complete control

CC(C)N(C(=O)n1oc(=O)n(CCC(F)(F)F)c1=O)c1ccc(F)cc1 [Compound 397]
Plant response rating, Cocklebur [1, 17]: 0 | Plant response rating, Cocklebur [1, 18]: 0 | Cocklebur plant response rating [1, 19]: 0 | Plant response rating, Cocklebur [1, 20]: 0 | Plant response rating, Cocklebur [1, 21]: 0 | Cocklebur plant response rating [1, 22]: 0 | Cocklebur plant response rating [1, 23]: 0 | Cocklebur plant response rating [1, 24]: 0 | Plant response rating, Corn [2, 17]: 0 | Plant response rating, Corn [2, 18]: 0 | Corn plant response rating [2, 19]: 0 | Plant response rating, Corn [2, 20]: 0 | Plant response rating, Corn [2, 21]: 0 | Corn plant response rating [2, 22]: 3 | Corn plant response rating [2, 23]: 8 | Corn plant response rating [2, 24]: 0 | Plant response rating, Crabgrass [3, 17]: 6 | Plant response rating, Crabgrass [3, 18]: 9 | Crabgrass plant response rating [3, 19]: 9 | Plant response rating, Crabgrass [3, 20]: 10 | Plant response rating, Crabgrass [3, 21]: 10 | Crabgrass plant response rating [3, 22]: 10 | Crabgrass plant response rating [3, 23]: 10 | Crabgrass plant response rating [3, 24]: 2 | Plant response rating, Giant foxtail [4, 17]: 8 | Plant response rating, Giant foxtail [4, 18]: 9 | Giant foxtail plant response rating [4, 19]: 9 | Plant response rating, Giant foxtail [4, 20]: 10 | Plant response rating, Giant foxtail [4, 21]: 10 | Giant foxtail plant response rating [4, 22]: 10 | Giant foxtail plant response rating [4, 23]: 10 | Giant foxtail plant response rating [4, 24]: 8 | Plant response rating, Morningglory [5, 18]: 5 | Morningglory plant response rating [5, 19]: 6 | Plant response rating, Morningglory [5, 20]: 0 | Plant response rating, Morningglory [5, 21]: 0 | Morningglory plant response rating [5, 22]: 0 | Morningglory plant response rating [5, 23]: 4 | Morningglory plant response rating [5, 24]: 0 | Plant response rating, Redroot pigweed [6, 18]: 4 | Redroot pigweed plant response rating [6, 19]: 6 | Plant response rating, Redroot pigweed [6, 20]: 8 | Plant response rating, Redroot pigweed [6, 21]: 8 | Redroot pigweed plant response rating [6, 22]: 10 | Redroot pigweed plant response rating [6, 23]: 10 | Redroot pigweed plant response rating [6, 24]: 0 | Plant response rating, Rape [7, 18]: 0 | Rape plant response rating [7, 19]: 2 | Plant response rating, Rape [7, 20]: 3 | Plant response rating, Rape [7, 21]: 9 | Rape plant response rating [7, 22]: 10 | Rape plant response rating [7, 23]: 10 | Rape plant response rating [7, 24]: 0 | Plant response rating, Soybean [8, 18]: 5 | Soybean plant response rating [8, 19]: 6 | Plant response rating, Soybean [8, 20]: 0 | Plant response rating, Soybean [8, 21]: 0 | Soybean plant response rating [8, 22]: 0 | Soybean plant response rating [8, 23]: 0 | Soybean plant response rating [8, 24]: 3 | Plant response rating, Sugarbeets [9, 18]: 0 | Sugarbeets plant response rating [9, 19]: 0 | Plant response rating, Sugarbeets [9, 20]: 0 | Plant response rating, Sugarbeets [9, 21]: 4 | Sugarbeets plant response rating [9, 22]: 7 | Sugarbeets plant response rating [9, 23]: 9 | Sugarbeets plant response rating [9, 24]: 0 | Plant response rating, Velvetleaf [10, 18]: 0 | Velvetleaf plant response rating [10, 19]: 0 | Plant response rating, Velvetleaf [10, 20]: 0 | Plant response rating, Velvetleaf [10, 21]: 2 | Velvetleaf plant response rating [10, 22]: 6 | Velvetleaf plant response rating [10, 23]: 6 | Velvetleaf plant response rating [10, 24]: 0 | Wheat plant response rating [11, 19]: 4 | Plant response rating, Wheat [11, 20]: 0 | Plant response rating, Wheat [11, 21]: 0 | Wheat plant response rating [11, 22]: 2 | Wheat plant response rating [11, 23]: 3 | Wheat plant response rating [11, 24]: 0 | Wild oats plant response rating [12, 19]: 5 | Plant response rating, Wild oats [12, 20]: 2 | Plant response rating, Wild oats [12, 21]: 5 | Wild oats plant response rating [12, 22]: 7 | Wild oats plant response rating [12, 23]: 10 | Wild oats plant response rating [12, 24]: 0 | Plant response rating, Nutsedge [13, 18]: 0 | Nutsedge plant response rating [13, 19]: 0 | Plant response rating, Nutsedge [13, 20]: 0 | Plant response rating, Nutsedge [13, 21]: 0 | Nutsedge plant response rating [13, 22]: 0 | Nutsedge plant response rating [13, 23]: 0 | Nutsedge plant response rating [13, 24]: 0 | Rice plant response rating [14, 25]: 0 | Rice plant response rating [14, 26]: 0 | Plant response rating, Rice [14, 27]: 0 | S. Flatsedge plant response rating [15, 25]: 0 | S. Flatsedge plant response rating [15, 26]: 0 | Plant response rating, S. Flatsedge [15, 27]: 0 | Plant response rating, Ducksalad ([16]; Postemergence (flood test), Rate 125 g/ha): 0 | Ducksalad plant response rating [16, 25]: 0 | Ducksalad plant response rating [16, 26]: 0 | Plant response rating, Ducksalad ([16]; flood test species, listed under Postemergence, Rate 250 g/ha): 0
